Test results: PubChem BioAssay AID1963861 (Molecular Pharmacology Branch, DTP, NCI, 2024)
pIC50: −log10 of the molar value. “And” between values parts separate entries of the source, which are not always exact repeats. Equal entries are not always repeated.

Test system: 885724-159-R-J1-PDC KRAS PDC multicell spheroid viability
Test: Anticancer human tumor 885724-159-R-J1-PDC patient-derived pancreatic adenocarcinoma cell line growth inhibition [KRAS2]
Conditions: for viability, T/C: stronger effect = lower value
From the text: Multicellular complex tumor spheroid response to RAS pathway inhibitors in combination with a targeted agents in patient-derived cell lines with oncogenic KRAS variants from multiple cancer types
A high-throughput screen of multi-cell type tumor spheroids was designed to identify active combinations of targeted small molecules and KRAS pathway inhibitors. Complex spheroids include a stromal component modeled by human endothelial cells (HUVEC) and fibroblasts modeled by human mesenchymal stem cells (MSCs). The concentration ranges selected for each drug and investigational agent were based upon clinically achievable concentrations if the clinical Cmax of the agent was known.
Compounds. The drugs and investigational agents: BI-3406 (NSC825286), BAY-293 (NSC824723), batoprotafib (TNO155; NSC825523), sotorasib (AMG 510; NSC818433), MRTX1257 (NSC819558), elimusertib (BAY 1895344; NSC800525), molibresib (GSK525762; NSC774829), temuterkib (LY3214996; NSC803410), venetoclax (NSC766270), alisertib (NSC759677), olaparib (NSC753686), talazoparib (NSC767125), erdafitinib (NSC781556), ipatasertib (NSC767898), cabozantinib (NSC761068), nintedanib (NSC756659), abemaciclib (NSC768073), docetaxel (NSC628503), trametinib (NSC758246), and sapanisertib (NSC764658) were obtained from the National Cancer Institute (NCI) Developmental Therapeutics Program Chemical Repository. The FDA-approved anticancer drug set is available from the Developmental Therapeutics Program. […] The stock solutions were prepared in dimethyl sulfoxide (DMSO, Sigma-Aldrich, St. Louis, MO, cat. D2650) at 800-fold the tested concentration and stored at -70 degrees C prior to their use. All drugs and investigational agents were tested over a range starting from a high concentration at or near the clinical Cmax and decreasing in half-log increments. If the clinical Cmax for an agent had not been determined, the highest concentration tested was 10 microM.
Cell Culture. All cells were maintained in an incubator at 37 degrees C and 5% CO2 with 95% humidity. The PDC lines were cultured according to standard operating procedures established by the NCI PDMR (https://pdmr.cancer.gov/sops/default.htm). Briefly, all PDCs were thawed and cultured in Matrigel-coated flasks prepared with a working solution of 1X Ham's F-12 nutrient mix, without supplementation (Invitrogen, Waltham, MA, cat. 11765054), 100 U/mL penicillin-streptomycin (Invitrogen, cat. 15140122), and 2.5% Matrigel (Corning Inc., Corning, NY, cat. 354248) for the first three passages. All PDCs were cultured in complete DMEM/F-12 media containing advanced DMEM/F-12 (Invitrogen, cat. 12634028), 4.9% defined fetal bovine serum, heat inactivated (HyClone Laboratories Inc., Logan, UT, cat. SH30070.03HI), 389 ng/mL hydrocortisone (Sigma-Aldrich, cat. H4001), 9.7 ng/mL human EGF recombinant protein (Invitrogen, cat. PHG0313), 23.4 microg/mL adenine (Sigma-Aldrich, cat. A2786), 97.3 U/mL penicillin-streptomycin (Invitrogen, cat. 15140122), 1.9 mM L-glutamine (Invitrogen, cat. 25030081), and 9.7 microM Y-27632 dihydrochloride (Tocris Bioscience, Bristol, United Kingdom, cat. 1254). The PDCs were cultured in complete DMEM/F12 media without 9.7 microM Y-27632 dihydrochloride for at least two passages prior to the screen. The established cell line HOP-62 was cultured in RPMI 1640 medium, HEPES (Invitrogen, cat. 22400105) with 10% defined fetal bovine serum (HyClone Laboratories Inc., cat. SH30070.03) and 2 mM L-glutamine (Invitrogen, cat. 25030081). The pooled donor HUVEC were cultured in endothelial cell growth medium 2 (PromoCell, Heidelberg, Germany, cat. C-22011) and the hMSC were cultured in mesenchymal stem cell growth medium 2 (PromoCell, cat. C-28009). For all experiments, HUVEC and hMSC were used at passages </=5, while the malignant cell lines were used at passages </=15. […]

[1] = curve of first compound, second compound 0.1 µM
[2] = curve of first compound, second compound 0.316 µM
[3] = curve of first compound, second compound 1 µM
[4] = curve of first compound, second compound 3.16 µM
[5] = second compound 0.1 µM, first compound 0.0316 µM
[6] = second compound 0.1 µM, first compound 0.1 µM
[7] = second compound 0.1 µM, first compound 0.316 µM
[8] = second compound 0.1 µM, first compound 1 µM
[9] = second compound 0.1 µM, first compound 3.16 µM
[10] = second compound 0.1 µM, first compound 10 µM
[11] = second compound 0.316 µM, first compound 0.0316 µM
[12] = second compound 0.316 µM, first compound 0.1 µM
[13] = second compound 0.316 µM, first compound 0.316 µM
[14] = second compound 0.316 µM, first compound 1 µM
[15] = second compound 0.316 µM, first compound 3.16 µM
[16] = second compound 0.316 µM, first compound 10 µM
[17] = second compound 1 µM, first compound 0.0316 µM
[18] = second compound 1 µM, first compound 0.1 µM
[19] = second compound 1 µM, first compound 0.316 µM
[20] = second compound 1 µM, first compound 1 µM
[21] = second compound 1 µM, first compound 3.16 µM
[22] = second compound 1 µM, first compound 10 µM
[23] = second compound 3.16 µM, first compound 0.0316 µM
[24] = second compound 3.16 µM, first compound 0.1 µM
[25] = second compound 3.16 µM, first compound 0.316 µM
[26] = second compound 3.16 µM, first compound 1 µM
[27] = second compound 3.16 µM, first compound 3.16 µM
[28] = second compound 3.16 µM, first compound 10 µM
[29] = curve of first compound, second compound 10 µM
[30] = second compound 10 µM, first compound 0.0316 µM
[31] = second compound 10 µM, first compound 0.1 µM
[32] = second compound 10 µM, first compound 0.316 µM
[33] = second compound 10 µM, first compound 1 µM
[34] = second compound 10 µM, first compound 3.16 µM
[35] = second compound 10 µM, first compound 10 µM
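Further: spheroids exposed to agents for 7 days before readout.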

## CCNC(=O)CC1N=C(c2ccc(Cl)cc2)c2cc(OC)ccc2-n2c(C)nnc21 (stereo not given) + C=CC(=O)N1CCN(c2nc(OCC3CCCN3C)nc3c2CCN(c2cccc4cccc(C)c24)C3)CC1CC#N
Curve of first compound, second compound 0.0316 µM
  pIC50: 5.45
[1]
  pIC50: 5.93
[2]
  pIC50: 6.08
[3]
  pIC50: 6.07
[4]
  pIC50: > 7.50
Second compound 0.0316 µM, first compound 0.0316 µM
  viability, T/C: 110%
Second compound 0.0316 µM, first compound 0.1 µM
  viability, T/C: 98.9%
Second compound 0.0316 µM, first compound 0.316 µM
  viability, T/C: 74.7%
Second compound 0.0316 µM, first compound 1 µM
  viability, T/C: 63.9%
Second compound 0.0316 µM, first compound 3.16 µM
  viability, T/C: 49.9%
Second compound 0.0316 µM, first compound 10 µM
  viability, T/C: 44.8%
[5]
  viability, T/C: 102%
[6]
  viability, T/C: 89.1%
[7]
  viability, T/C: 64.8%
[8]
  viability, T/C: 51%
[9]
  viability, T/C: 46.3%
[10]
  viability, T/C: 45.7%
[11]
  viability, T/C: 118%
[12]
  viability, T/C: 105%
[13]
  viability, T/C: 63.5%
[14]
  viability, T/C: 50.4%
[15]
  viability, T/C: 45%
[16]
  viability, T/C: 42.4%
[17]
  viability, T/C: 87.2%
[18]
  viability, T/C: 82.7%
[19]
  viability, T/C: 66.5%
[20]
  viability, T/C: 46.5%
[21]
  viability, T/C: 45%
[22]
  viability, T/C: 39.5%
[23]
  viability, T/C: 49%
[24]
  viability, T/C: 49.4%
[25]
  viability, T/C: 39.2%
[26]
  viability, T/C: 20.6%
[27]
  viability, T/C: 29.3%
[28]
  viability, T/C: 27.9%

## COc1cc(Nc2ncc3c(n2)-c2ccc(Cl)cc2C(c2c(F)cccc2OC)=NC3)ccc1C(=O)O + CNCc1ccccc1-c1csc(C(C)Nc2nc(C)nc3cc(OC)c(OC)cc23)c1
[1]
  pIC50: < 5.00
[2]
  pIC50: < 5.00
[3]
  pIC50: < 5.00
[4]
  pIC50: > 7.50
[29]
  pIC50: > 7.50
[5]
  viability, T/C: 102%
[6]
  viability, T/C: 98.5%
[7]
  viability, T/C: 90.5%
[8]
  viability, T/C: 92.7%
[9]
  viability, T/C: 94.7%
[10]
  viability, T/C: 101%
[11]
  viability, T/C: 102%
[12]
  viability, T/C: 92.7%
[13]
  viability, T/C: 89.4%
[14]
  viability, T/C: 88.5%
[15]
  viability, T/C: 81%
[16]
  viability, T/C: 87.7%
[17]
  viability, T/C: 94.8%
[18]
  viability, T/C: 87.7%
[19]
  viability, T/C: 73.6%
[20]
  viability, T/C: 81.4%
[21]
  viability, T/C: 75.6%
[22]
  viability, T/C: 83.5%
[23]
  viability, T/C: 2.11%
[24]
  viability, T/C: 2.66%
[25]
  viability, T/C: 1.13%
[26]
  viability, T/C: 1.16%
[27]
  viability, T/C: 4.03%
[28]
  viability, T/C: 12.1%
[30]
  viability, T/C: 0.16%
[31]
  viability, T/C: 0.37%
[32]
  viability, T/C: 0.43%
[33]
  viability, T/C: 0.34%
[34]
  viability, T/C: 0.16%
[35]
  viability, T/C: 0.35%

## O=C(c1cc(Cc2n[nH]c(=O)c3ccccc23)ccc1F)N1CCN(C(=O)C2CC2)CC1 + C=CC(=O)N1CCN(c2nc(=O)n(-c3c(C)ccnc3C(C)C)c3nc(-c4c(O)cccc4F)c(F)cc23)C(C)C1
[1]
  pIC50: < 5.00
[2]
  pIC50: < 5.00
[3]
  pIC50: < 5.00
[4]
  pIC50: < 5.00
[29]
  pIC50: < 5.00
[5]
  viability, T/C: 117%
[6]
  viability, T/C: 115%
[7]
  viability, T/C: 111%
[8]
  viability, T/C: 113%
[9]
  viability, T/C: 109%
[10]
  viability, T/C: 94.1%
[11]
  viability, T/C: 124%
[12]
  viability, T/C: 115%
[13]
  viability, T/C: 115%
[14]
  viability, T/C: 113%
[15]
  viability, T/C: 108%
[16]
  viability, T/C: 103%
[17]
  viability, T/C: 121%
[18]
  viability, T/C: 119%
[19]
  viability, T/C: 117%
[20]
  viability, T/C: 118%
[21]
  viability, T/C: 114%
[22]
  viability, T/C: 100%
[23]
  viability, T/C: 114%
[24]
  viability, T/C: 119%
[25]
  viability, T/C: 122%
[26]
  viability, T/C: 117%
[27]
  viability, T/C: 111%
[28]
  viability, T/C: 93.5%
[30]
  viability, T/C: 86%
[31]
  viability, T/C: 84.8%
[32]
  viability, T/C: 85.4%
[33]
  viability, T/C: 79%
[34]
  viability, T/C: 90.9%
[35]
  viability, T/C: 71%

## C=CC(=O)N1CCN(c2nc(OCC3CCCN3C)nc3c2CCN(c2cccc4cccc(C)c24)C3)CC1CC#N (stereo not given)
Compound 0.0316 µM
  viability, T/C: 103% [middle of 17 runs]
Compound 0.316 µM
  viability, T/C: 94.9% [middle of 17 runs]
Compound alone, run of 08/19/2021
  pIC50: < 5.50 and 5.54 and 5.53
Compound alone, run of 08/26/2021
  pIC50: < 5.50 and 5.51
Compound alone, run of 09/02/2021
  pIC50: < 5.50 and 5.53 and 5.54
